{"source": "ChEMBL document CHEMBL4433219", "about": "“EC18 as a Tool To Understand the Role of HCN4 Channels in Mediating Hyperpolarization-Activated Current in Tissues” (ACS Med Chem Lett, 2019)", "key": {"[1]": {"biological_target": "T1, Potassium/sodium hyperpolarization-activated cyclic nucleotide-gated channel 2 (Mus musculus, UniProt O88703)", "T1 sequence (O88703 whole entry)": "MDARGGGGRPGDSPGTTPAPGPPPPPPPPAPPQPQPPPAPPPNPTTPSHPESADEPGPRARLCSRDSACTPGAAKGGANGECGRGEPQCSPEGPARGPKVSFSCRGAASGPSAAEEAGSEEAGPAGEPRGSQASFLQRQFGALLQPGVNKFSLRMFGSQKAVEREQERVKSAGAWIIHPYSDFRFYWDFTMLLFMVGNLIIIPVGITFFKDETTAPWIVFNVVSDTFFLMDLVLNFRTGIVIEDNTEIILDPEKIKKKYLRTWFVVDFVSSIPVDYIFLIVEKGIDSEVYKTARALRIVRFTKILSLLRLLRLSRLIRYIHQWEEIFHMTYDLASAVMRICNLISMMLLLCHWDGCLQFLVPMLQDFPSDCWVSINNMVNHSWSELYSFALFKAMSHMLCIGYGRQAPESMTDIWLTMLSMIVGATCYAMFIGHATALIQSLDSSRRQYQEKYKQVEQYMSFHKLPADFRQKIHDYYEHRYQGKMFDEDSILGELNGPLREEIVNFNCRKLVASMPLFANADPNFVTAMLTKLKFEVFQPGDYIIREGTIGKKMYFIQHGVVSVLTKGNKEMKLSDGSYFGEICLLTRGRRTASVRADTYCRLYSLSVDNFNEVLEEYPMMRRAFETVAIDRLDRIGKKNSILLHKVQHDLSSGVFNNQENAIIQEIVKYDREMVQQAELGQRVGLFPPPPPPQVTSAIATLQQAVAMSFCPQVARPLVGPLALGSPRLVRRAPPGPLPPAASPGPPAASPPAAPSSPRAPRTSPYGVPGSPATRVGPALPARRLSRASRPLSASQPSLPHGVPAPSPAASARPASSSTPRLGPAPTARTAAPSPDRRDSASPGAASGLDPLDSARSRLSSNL", "test": "Inhibition of mouse HCN2 expressed in HEK293 cells assessed as reduction in hyperpolarization activated current at holding potential of -80 mV by patch clamp assay", "format": "cell-based"}, "[2]": {"test": "Selectivity ratio of EC50 for human HCN1 to EC50 for mouse HCN4"}, "Cavia porcellus": {"species": "Cavia porcellus", "test": "Inhibition of HCN4 in guinea pig single sinoatrial node assessed as reduction in hyperpolarization activated current at 10 uM at holding potential of -120 mV by patch clamp assay relative to control"}, "[3]": {"system": "Cardiac muscle of left ventricle", "test": "(§1) Effect on cardiac electrophysiological profile in Mongrel perfused dog heart left ventricular muscle stimulated at basic cycle length of 1000 milliseconds assessed as maximum diastolic potential at 10 uM measured after 25 mins by glass capillary microelectrode based electrophysiology assay (reference value: -83.8 +/- 2.28 mV)", "format": "functional, Canis lupus familiaris"}, "[4]": {"system": "Cardiac muscle of left ventricle", "test": "as §1, with “as action” for “as maximum diastolic”, “potential amplitude” for “potential”, “at 1” for “at 10”, “value: 104.1” for “value: -83.8”, “+/- 2.7” for “+/- 2.28”", "format": "functional, Canis lupus familiaris"}, "[5]": {"system": "Cardiac muscle of left ventricle", "test": "as §1, with “as Vmax” for “as maximum diastolic potential”, “at 1” for “at 10”, “value: 244.6” for “value: -83.8”, “+/- 30.87 V/s)” for “+/- 2.28 mV)”", "format": "functional, Canis lupus familiaris"}, "[6]": {"system": "Cardiac muscle of left ventricle", "test": "as §1, with “action” for “maximum diastolic”, “potential time duration at 90% of repolarization” for “potential”, “212.5” for “-83.8”, “16.25 milliseconds)” for “2.28 mV)”", "format": "functional, Canis lupus familiaris"}, "[7]": {"system": "Cardiac muscle of left ventricle", "test": "as §1, with “action” for “maximum diastolic”, “potential time duration at 75% of repolarization” for “potential”, “199.7” for “-83.8”, “16.87 milliseconds)” for “2.28 mV)”", "format": "functional, Canis lupus familiaris"}, "[8]": {"system": "Cardiac muscle of left ventricle", "test": "(§2) Effect on cardiac electrophysiological profile in Mongrel perfused dog heart left ventricular muscle stimulated at basic cycle length of 1000 milliseconds assessed as action potential time duration at 10% of repolarization at 1 uM measured after 25 mins by glass capillary microelectrode based electrophysiology assay (reference value: 69.9 +/- 10.84 milliseconds)", "format": "functional, Canis lupus familiaris"}, "[9]": {"system": "Cardiac muscle of left ventricle", "test": "as §2, with “repolarization at 10 uM measured” for “repolarization at 1 uM measured”", "format": "functional, Canis lupus familiaris"}, "[10]": {"biological_target": "T2, Potassium/sodium hyperpolarization-activated cyclic nucleotide-gated channel 4 (Mus musculus) (UniProt O70507)", "T2 sequence (whole entry)": "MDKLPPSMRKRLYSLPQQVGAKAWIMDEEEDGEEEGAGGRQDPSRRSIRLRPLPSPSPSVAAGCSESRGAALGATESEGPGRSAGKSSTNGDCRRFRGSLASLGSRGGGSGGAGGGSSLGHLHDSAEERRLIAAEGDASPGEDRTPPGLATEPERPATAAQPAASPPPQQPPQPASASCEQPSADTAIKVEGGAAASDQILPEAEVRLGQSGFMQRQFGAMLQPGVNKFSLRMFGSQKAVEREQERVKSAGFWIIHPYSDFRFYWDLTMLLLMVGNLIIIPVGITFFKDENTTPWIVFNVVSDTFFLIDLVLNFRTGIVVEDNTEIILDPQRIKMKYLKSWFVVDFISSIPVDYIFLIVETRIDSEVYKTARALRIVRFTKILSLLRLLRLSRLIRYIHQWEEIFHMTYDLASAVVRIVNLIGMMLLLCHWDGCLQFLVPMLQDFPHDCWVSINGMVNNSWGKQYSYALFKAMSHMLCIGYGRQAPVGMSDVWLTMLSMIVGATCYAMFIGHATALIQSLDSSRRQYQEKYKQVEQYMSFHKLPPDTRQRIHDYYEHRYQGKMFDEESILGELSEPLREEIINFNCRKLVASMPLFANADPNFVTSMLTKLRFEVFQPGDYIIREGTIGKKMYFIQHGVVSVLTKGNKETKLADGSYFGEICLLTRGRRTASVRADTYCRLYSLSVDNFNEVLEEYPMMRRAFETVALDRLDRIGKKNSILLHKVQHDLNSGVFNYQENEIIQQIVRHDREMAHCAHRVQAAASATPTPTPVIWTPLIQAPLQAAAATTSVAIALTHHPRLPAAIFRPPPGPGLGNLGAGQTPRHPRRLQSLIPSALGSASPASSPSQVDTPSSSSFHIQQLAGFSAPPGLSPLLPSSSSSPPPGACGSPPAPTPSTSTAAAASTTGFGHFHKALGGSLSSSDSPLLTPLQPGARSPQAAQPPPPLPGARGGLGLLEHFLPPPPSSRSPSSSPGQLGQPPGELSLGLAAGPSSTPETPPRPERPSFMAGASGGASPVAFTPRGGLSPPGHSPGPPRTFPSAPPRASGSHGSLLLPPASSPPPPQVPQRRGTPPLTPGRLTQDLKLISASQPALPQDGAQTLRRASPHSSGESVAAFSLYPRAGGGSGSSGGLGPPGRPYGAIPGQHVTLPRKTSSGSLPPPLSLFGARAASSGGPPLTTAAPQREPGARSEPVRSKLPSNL", "test": "Inhibition of HCN4 in C57BL/6J mouse thalamocortical relay neuron assessed as reduction in hyperpolarization current at 30 uM at holding potential of -120 mV by whole-cell patch clamp assay relative to control"}, "[11]": {"biological_target": "T3, Potassium/sodium hyperpolarization-activated cyclic nucleotide-gated channel 4 (Mus musculus, UniProt O70507)", "T3 sequence (O70507 whole entry)": "T2 sequence (whole entry)", "test": "Inhibition of HCN4 in C57BL/6J mouse thalamocortical relay neuron assessed as reduction in hyperpolarization current at holding potential of -120 mV by whole-cell patch clamp assay"}}, "data": [{"smiles": "COc1ccc(CCN(C)[C@@H]2CCC[C@H](N3CCc4cc(OC)c(OC)cc4CC3=O)C2)cc1OC", "note": "(racemic)", "values": [{"measurement": "EC50", "setting": "[1]", "value": 19.3, "unit": "µM"}, {"measurement": "Ratio EC50", "setting": "[2]", "value": 5}, {"measurement": "inhibition", "setting": "Cavia porcellus", "value": 67, "unit": "%"}, {"measurement": "Activity", "setting": "[3]", "value": -83, "unit": "mV"}, {"measurement": "Activity", "setting": "[4]", "value": 103.1, "unit": "mV"}, {"measurement": "Activity", "setting": "[5]", "value": 232.9, "unit": "V/s"}, {"measurement": "Time", "setting": "[6]", "value": 220.2, "unit": "ms"}, {"measurement": "Time", "setting": "[7]", "value": 206, "unit": "ms"}, {"measurement": "Time", "setting": "[8]", "value": 58.6, "unit": "ms"}, {"measurement": "Time", "setting": "[9]", "value": 55.7, "unit": "ms"}, {"measurement": "inhibition", "setting": "[10]", "value": 91.3, "unit": "%"}, {"measurement": "EC50", "setting": "[11]", "value": 11, "unit": "µM"}]}]}
